Laboratory results reported in ChEMBL document CHEMBL5584348, “Exploring Degradation of Intrinsically Disordered Protein Yes-Associated Protein Induced by Proteolysis TArgeting Chimeras” (J Med Chem, 2024).
The source made the active and inactive calls. The calls are words filed in the database; no cut-off is given here.

Legend:
[1] = biological target: T1, von Hippel-Lindau disease tumor suppressor/Transcriptional coactivator YAP1 (Homo sapiens, UniProt P40337+P46937); assay: PROTAC activity at YAP/VHL in human Huh-7 cells assessed as induction of YAP degradation at 20 uM incubated at 12 hrs by Western blot analysis; format: cell-based
T1 sequence (P40337 whole entry, looked up): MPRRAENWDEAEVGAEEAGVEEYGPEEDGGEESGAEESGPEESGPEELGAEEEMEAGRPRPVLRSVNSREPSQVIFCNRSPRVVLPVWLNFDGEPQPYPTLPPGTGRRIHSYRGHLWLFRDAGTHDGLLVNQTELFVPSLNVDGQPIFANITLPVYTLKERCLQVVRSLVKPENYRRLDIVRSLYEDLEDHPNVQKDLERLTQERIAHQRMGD
T1 sequence (P46937 whole entry, looked up): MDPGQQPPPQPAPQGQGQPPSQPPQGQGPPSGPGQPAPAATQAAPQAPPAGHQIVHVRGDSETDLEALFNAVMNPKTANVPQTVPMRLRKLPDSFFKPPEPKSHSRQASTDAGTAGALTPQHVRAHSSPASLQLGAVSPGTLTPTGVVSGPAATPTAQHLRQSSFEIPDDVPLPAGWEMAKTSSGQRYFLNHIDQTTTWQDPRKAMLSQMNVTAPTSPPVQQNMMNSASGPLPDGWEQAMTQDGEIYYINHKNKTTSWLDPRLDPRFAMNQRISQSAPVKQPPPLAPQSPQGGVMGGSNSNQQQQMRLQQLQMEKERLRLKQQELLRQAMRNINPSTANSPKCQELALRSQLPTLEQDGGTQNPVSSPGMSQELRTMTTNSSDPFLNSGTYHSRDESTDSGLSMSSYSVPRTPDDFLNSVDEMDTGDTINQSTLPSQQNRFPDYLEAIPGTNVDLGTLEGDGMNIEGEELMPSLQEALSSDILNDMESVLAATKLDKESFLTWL

Huh-7 [2] = assay: Antitumor activity against human Huh-7 cells xenografted in immunodeficient male NSG mouse assessed as reduction in CTGF level at 35 mg/kg, ip administered every 3 days for 24 days by Western blot analysis; format: functional, organism-based; conditions: time 24.0 day
[3] = AUC (0 to infinity) in Sprague-Dawley rat at 35 mg/kg, ip measured upto 24 hrs by LC-MS/MS analysis; format: ADME, organism-based; conditions: in vivo
[4] = Toxicity in immunodeficient male NSG mouse xenografted with human Huh-7 cells assessed as change in ALT level in liver at 35 mg/kg, ip administered every 3 days for 24 days; format: organism-based; conditions: in vivo, 576 h, time 24 day
[5] = biological target: T1, von Hippel-Lindau disease tumor suppressor/Transcriptional coactivator YAP1; assay: PROTAC activity at YAP/VHL in human Huh-7 cells assessed as suppression of CTGF expression at 10 to 20 uM measured for 24 hrs by Western blot analysis relative to control; format: cell-based; conditions: dose 10-20 µM
[6] = biological target: T1, von Hippel-Lindau disease tumor suppressor/Transcriptional coactivator YAP1; assay: PROTAC activity at YAP/VHL in human Huh-7 cells assessed as induction of YAP degradation at 20 uM measured for 24 hrs in presence of 4-(3,4-dimethoxyphenyl)-2-phenyl-5,7-dihydro-6H-benzo[b]pyrido[2,3-d]azepin-6-one by Western blot analysis; format: cell-based
Huh-7 [7] = assay: Antitumor activity against human Huh-7 cells xenografted in immunodeficient male NSG mouse assessed as tumor growth inhibition at 35 mg/kg, ip administered every 3 days for 24 days in presence of sorafenib; format: functional; conditions: Huh-7, 576 h, time 24 day, read-out: TGI
[8] = Toxicity in immunodeficient male NSG mouse xenografted with human Huh-7 cells assessed as change in total bilirubin level in liver at 35 mg/kg, ip administered every 3 days for 24 days; format: organism-based; conditions: in vivo, 576 h, time 24 day
Huh-7 [9] = assay: Antiproliferative activity against human Huh-7 cells overexpressing YAP assessed as suppression of cell proliferation incubated for 4 days by CCK-8 assay; format: functional, cell-based; conditions: time 4.0 day
[10] = Toxicity in immunodeficient male NSG mouse xenografted with human Huh-7 cells assessed as change in triglyceride content in liver at 35 mg/kg, ip administered every 3 days for 24 days; format: organism-based; conditions: in vivo, 576 h, time 24 day
Huh-7 [11] = assay: Antitumor activity against human Huh-7 cells xenografted in immunodeficient male NSG mouse assessed as reduction in CYR61 level at 35 mg/kg, ip administered every 3 days for 24 days by Western blot analysis; format: functional, organism-based; conditions: time 24.0 day
NCI-H226 [12] = assay: Antiproliferative activity against NF2 deficient- human NCI-H226 cells assessed as cell growth inhibition incubated for 4 days by CCK-8 assay; format: functional, cell-based; conditions: NCI-H226, 96 h
[13] = biological target: von Hippel-Lindau disease tumor suppressor/WW domain-containing transcription regulator protein 1 (Homo sapiens) (UniProt P40337+Q9GZV5); assay: PROTAC activity at TAZ/VHL in human Huh-7 cells assessed as induction of TAZ degradation at 5 to 20 uM incubated for 24 hrs by Western blot analysis; format: cell-based; conditions: dose 5-20 µM
Chain of von Hippel-Lindau disease tumor suppressor/WW domain-containing transcription regulator protein 1 (Homo sapiens) (P40337 whole entry, looked up, the tested form may be a part): as the sequence (P40337 whole entry, looked up) above
Chain of von Hippel-Lindau disease tumor suppressor/WW domain-containing transcription regulator protein 1 (Homo sapiens) (Q9GZV5 whole entry, looked up, the tested form may be a part): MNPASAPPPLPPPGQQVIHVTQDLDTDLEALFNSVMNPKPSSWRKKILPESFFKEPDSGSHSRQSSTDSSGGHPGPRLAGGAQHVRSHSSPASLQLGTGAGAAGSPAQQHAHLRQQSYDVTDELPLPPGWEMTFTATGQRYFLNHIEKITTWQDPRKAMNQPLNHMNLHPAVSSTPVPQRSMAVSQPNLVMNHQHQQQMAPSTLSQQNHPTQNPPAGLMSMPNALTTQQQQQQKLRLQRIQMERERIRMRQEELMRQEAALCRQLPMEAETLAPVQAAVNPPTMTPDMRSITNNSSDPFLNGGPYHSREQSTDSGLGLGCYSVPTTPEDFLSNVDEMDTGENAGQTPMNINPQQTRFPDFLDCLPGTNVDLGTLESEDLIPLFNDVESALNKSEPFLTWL

NCI-H226 [14] = assay: Antiproliferative activity against NF2 deficient- human NCI-H226 cells assessed as maximum cell growth inhibition incubated for 4 days by CCK-8 assay relative to control; format: functional; conditions: time 4 day
[15] = Toxicity in immunodeficient male NSG mouse xenografted with human Huh-7 cells assessed as change in body weight at 35 mg/kg, ip administered every 3 days for 24 days; format: organism-based; conditions: in vivo, 576 h, time 24 day
[16] = biological target: T1, von Hippel-Lindau disease tumor suppressor/Transcriptional coactivator YAP1; assay: PROTAC activity at YAP/VHL in human NCI-H226 cells assessed as reduction in CTGF expression at 5 uM incubated for 48 hrs by Western blot analysis; format: cell-based

- Activity [1]: 10%
- AUC(0-inf) [3]: 2690 ng·h/mL
- Activity [5]: Active
- Activity [6]: Active
- IC50 (NCI-H226 [12]): 15.3 µM
- Activity [13]: Active
- Activity [16]: Active
SMILES: COc1cc(-c2cc(-c3ccccc3)nc3c2CC(=O)Nc2ccccc2-3)ccc1OCCOCCOCCC(=O)N[C@H](C(=O)N1C[C@H](O)C[C@H]1C(=O)N[C@@H](C)c1ccc(-c2scnc2C)cc1)C(C)(C)C
- Activity (Huh-7 [2]): Active
- Activity [4]: Non-Toxic
- inhibition in vivo at 35 mg/kg (Huh-7 [7]): 93%
- Activity [8]: Non-Toxic
- Activity (Huh-7 [9]): Active
- Activity [10]: Non-Toxic
- Activity (Huh-7 [11]): Active
- inhibition (INH) (NCI-H226 [14]): 60%
- Activity [15]: Non-Toxic
